What was measured:
[1] = tested on: Danio rerio embryo; assay: BMC10 any morphological effect or mortality at 120 hpf; higher = less toxic
[2] = tested on: Danio rerio embryo; assay: LEL larval photomotor response dark phase 120 hpf
Experimental: (§1)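 ZBEscreen: dechorionated Tropical 5D zebrafish embryos were exposed from 4 hpf in 96-well plates (1% DMSO, 28 °C). All compounds were first tested at 100 µM; hits were retested at 0.005-100 µM. Morphology and mortality were scored at 120 hpf and fitted as BMC10 (3-parameter log-logistic, extra risk). The embryonic photomotor response at 24 hpf and the larval photomotor response at 120 hpf are given as lowest effect levels (K-S test, p<0.01). NA = not significant up to 100 µM; NT = not tested.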

[3] = tested on: HL-60; assay: Cell Health Index (toxicity pseudo-probability over dose series) (index 0-1); higher = more cytotoxic / cell stress;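 further: HL-60 cells exposed 4 h at 37 °C to ten threefold dilutions spanning 5 nM to 100 µM, multiparametric flow cytometry features scored by machine-learning classification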
[4] = tested on: Danio rerio embryo; assay: LEL embryonic photomotor response 24 hpf
Experimental: as §1

Compound | BMC10 any morphological effect or mortality [1] | LEL larval photomotor response dark phase 120 hpf [2] | Cell Health Index [3] | LEL embryonic photomotor response 24 hpf [4]
Cc1ccc(C2Nc3ccccc3C(=O)N2c2ccccc2)s1 (stereo not drawn) [Retro-2] | 0.795 µM | > 100 µM | 0.241 | 0.14 µM
C[C@H]1CO[C@@H]2Cn3cc(C(=O)NCc4ccc(F)cc4F)c(=O)c(O)c3C(=O)N12 [Cabotegravir] | > 100 µM | > 100 µM | 0.321 | > 100 µM
C/C=C(/C)C(=O)O[C@H]1c2cc(OC)c(OC)c(OC)c2-c2c(cc3c(c2OC)OCO3)C[C@H](C)[C@]1(C)O [Schisantherin B] | 65.9 µM | > 100 µM | 0.365 | 100 µM
COc1cc(NC(C)CCCN)c2ncccc2c1.O=P(O)(O)O.O=P(O)(O)O (stereo not drawn) [Primaquine] | > 100 µM | > 100 µM | 0.352 | > 100 µM
C[C@H](NC(=O)Cc1cc(F)cc(F)c1)C(=O)N[C@@H]1C(=O)N(C)c2ccccc2-c2ccccc21 [DBZ] | 0.365 µM | 0.41 µM | 0.293 | 11.1 µM
Cc1cc(C#N)cc(C)c1Oc1nc(Nc2ccc(C#N)cc2)nc(N)c1Br [Etravirine] | > 100 µM | > 100 µM | 0.898 | > 100 µM
C/C=C/C[C@@H](C)[C@@H](O)[C@H]1C(=O)N[C@@H]([C@@H](C)O)C(=O)N(C)CC(=O)N(C)[C@@H](CC(C)C)C(=O)N[C@@H](C(C)C)C(=O)N(C)[C@@H](CC(C)C)C(=O)N[C@@H](C)C(=O)N[C@H](C)C(=O)N(C)[C@@H](CC(C)C)C(=O)N(C)[C@@H](CC(C)C)C(=O)N(C)[C@@H](C(C)C)C(=O)N1C [Cyclosporin C] | > 100 µM | 3.7 µM | 0.918 | 33.3 µM
CC(C)[C@H](NC(=O)[C@H](CCCNC(=N)N)NC(=O)NC(Cc1ccccc1)C(=O)O)C(=O)NC(C=O)CCCNC(=N)N.Cl.Cl (stereo partly drawn) [Antipain] | > 100 µM | > 100 µM | 0.154 | > 100 µM
Cl.N=c1ccn2c(n1)O[C@H]1[C@H](O)[C@@H](CO)O[C@H]12 [Cyclocytidine] | > 100 µM | > 100 µM | 0.207 | > 100 µM
CC(=O)c1c(O)cc(O)cc1O.O [Phloroacetophenone] | > 100 µM | > 100 µM | 0.231 | > 100 µM
S=C([S-])OC1CC2CC1C1CCCC21.[K+] (stereo not drawn) [D609 parent] | > 100 µM | > 100 µM | 0.277 | > 100 µM
C=C1CC[C@@H]2[C@](C)(CO)[C@H](O)CC[C@@]2(C)[C@@H]1/C=C/C1=CCOC1=O [14-deoxy-11,12-didehydro Andrographolide] | > 100 µM | > 100 µM | 0.43 | 100 µM
C=C(C)[C@@H]1CC[C@]2(C(=O)O)CC[C@]3(C)[C@H](CC[C@@H]4[C@@]5(C)CC[C@H](O)C(C)(C)[C@@H]5CC[C@]43C)[C@@H]12 [Betulinic acid] | > 100 µM | 100 µM | 0.4 | > 100 µM
Ic1cccc(/C=N/Nc2nc(N3CCOCC3)nc(N(c3ccccc3)c3ccccc3)n2)c1 [Vacuolin-1] | > 100 µM | > 100 µM | 0.271 | 33.3 µM
CS(=O)(=O)O.CS(=O)(=O)O.N=C(N)Nc1ccc(C(=O)Oc2ccc3cc(C(=N)N)ccc3c2)cc1 [Nafamostat] | > 100 µM | > 100 µM | 0.422 | > 100 µM
Oc1cc(O)c2c(c1)O[C@H](c1ccc(O)c(O)c1)[C@H](O)[C@H]2c1c(O)cc(O)c2c1O[C@H](c1ccc(O)c(O)c1)[C@@H](O)C2 [Procyanidin B1] | > 100 µM | > 100 µM | 0.406 | > 100 µM
C[C@@H]1CCO[C@H]2Cn3cc(C(=O)NCc4ccc(F)cc4F)c(=O)c(O)c3C(=O)N12 [Dolutegravir] | > 100 µM | > 100 µM | 0.167 | > 100 µM
C[C@H]1CC[C@@]2(OC1)O[C@H]1C[C@H]3[C@@H]4CC[C@@H]5C[C@@H](O[C@@H]6O[C@H](CO)[C@H](O)[C@H](O)[C@H]6O[C@@H]6O[C@H](CO)[C@@H](O)[C@H](O)[C@H]6O)CC[C@]5(C)[C@H]4CC[C@]3(C)[C@H]1[C@@H]2C [Timosaponin AIII] | > 100 µM | > 100 µM | 0.935 | > 100 µM
CC(C)(C)C1=C(O)C(C(C)(C)C)=CC(/C=C(C#N)\C#N)=C1 [Malonoben] | > 100 µM | > 100 µM | 0.861 | 0.14 µM
OC1=CC(OC)=C(C(CC(C2=CC=C(O)C=C2)O3)=O)C3=C1C/C=C(C)/C (stereo not drawn) [Isoxanthohumol] | > 100 µM | > 100 µM | 0.183 | > 100 µM
CO[C@H]1O[C@@H]2O[C@@]3(C)CC[C@H]4[C@H](C)CC[C@@H]([C@H]1C)[C@@]24OO3 [Artemether] | 3.55 µM | 0.41 µM | 0.289 | 11.1 µM
COc1cc(C[C@H]2C(=O)OC[C@@H]2Cc2ccc(OC)c(OC)c2)ccc1O [Arctigenin] | > 100 µM | 3.7 µM | 0.617 | > 100 µM
CC1(C)CC(NC(=O)C(=O)Nc2ccc(Cl)cc2)CC(C)(C)N1 [NBD-556] | 45.7 µM | 11.1 µM | 0.302 | 100 µM
O=C(OC[C@H]1O[C@@H](OC(=O)c2cc(O)c(O)c(OC(=O)c3cc(O)c(O)c(O)c3)c2)[C@H](OC(=O)c2cc(O)c(O)c(OC(=O)c3cc(O)c(O)c(O)c3)c2)[C@@H](OC(=O)c2cc(O)c(O)c(OC(=O)c3cc(O)c(O)c(O)c3)c2)[C@@H]1OC(=O)c1cc(O)c(O)c(OC(=O)c2cc(O)c(O)c(O)c2)c1)c1cc(O)c(O)c(OC(=O)c2cc(O)c(O)c(O)c2)c1 [Chinese Gallotannin] | 32.8 µM | > 100 µM | 0.935 | 100 µM
CC(=O)O/N=C1/C(=C2\C(=O)Nc3cc(Br)ccc32)Nc2ccccc21 [BIO-Acetoxime] | > 100 µM | 33.3 µM | 0.715 | > 100 µM
O=c1cc(-c2ccc(O)cc2)oc2cc(O)cc(O)c12 [Apigenin] | > 100 µM | > 100 µM | 0.288 | > 100 µM

Compound | BMC10 any morphological effect or mortality [1] | LEL larval photomotor response dark phase 120 hpf [2] | Cell Health Index [3] | LEL embryonic photomotor response 24 hpf [4]
Cc1ccc(NC(=O)C(=O)NC2CC(C)(C)NC(C)(C)C2)cc1 [YYA-021] | > 100 µM | 33.3 µM | 0.184 | 100 µM
O=C(NCc1ccco1)c1ccc2c(c1)N(Cc1c(F)cccc1Cl)C(=O)CS2 [G10] | > 100 µM | > 100 µM | 0.311 | 11.1 µM
CCC(CC)O[C@@H]1C=C(C(=O)O)C[C@H](N)[C@H]1NC(C)=O [Oseltamivir acid] | > 100 µM | > 100 µM | 0.174 | 0.046 µM
O=C1NC(=O)c2c1c1c3ccccc3[nH]c1c1[nH]c3ccccc3c21 [Arcyriaflavin A] | 1.1 µM | > 100 µM | 0.393 | > 100 µM
O=C1CCC[C@@H]2[C@H]3CCCN4CCC[C@@H](CN12)[C@@H]34 [Matrine] | > 100 µM | > 100 µM | 0.14 | > 100 µM
COc1c2c(cc3c1-c1c(cc4c(c1OC)OCO4)CC(C)C(C)C3)OCO2 (stereo not drawn) [Schisandrin C] | 2.06 µM | > 100 µM | 0.61 | 11.1 µM
CCS(=O)(=O)Nc1ccc2c(c1)/C(=C(/Nc1ccc(CN3CCCCC3)cc1)c1ccccc1)C(=O)N2 [Hesperadin] | 2.02 µM | > 100 µM | 0.882 | 3.7 µM
O=C(O[C@@H]1Cc2c(O)cc(O)cc2O[C@H]1c1cc(O)c(O)c(O)c1)c1cc(O)c(O)c(O)c1 [(-)-Gallocatechin gallate] | > 100 µM | > 100 µM | 0.859 | > 100 µM
O=C(O)CCCCC1CCSS1 (racemic) [DL-alpha-Lipoic acid] | > 100 µM | > 100 µM | 0.172 | > 100 µM
COc1ccc(-c2coc3cc(O)ccc3c2=O)cc1 [Formononetin] | 23 µM | > 100 µM | 0.288 | 100 µM
Cl.Nc1c(Br)cc(Br)cc1CN[C@H]1CC[C@H](O)CC1 [Ambroxol] | 42.5 µM | > 100 µM | 0.244 | 100 µM
FC(F)(F)c1cc(C(F)(F)F)c2ccc3nc(-c4nnco4)cn3c2n1 [RO8191] | 26.9 µM | 11.1 µM | 0.274 | 11.1 µM
C=C[C@@H]1C[C@]1(NC(=O)[C@@H]1C[C@H](Oc2ncc(OC)c3ccc(Cl)cc23)CN1C(=O)[C@@H](NC(=O)OC(C)(C)C)C(C)(C)C)C(=O)NS(=O)(=O)C1CC1 [Asunaprevir] | > 100 µM | 3.7 µM | 0.536 | 11.1 µM
CC(C)C[C@H](NC(=O)[C@H]1O[C@@H]1C(=O)O)C(=O)NCCCCNC(=N)N [E-64] | > 100 µM | > 100 µM | 0.121 | > 100 µM
CCN(CC)Cc1cc(Nc2ccnc3cc(Cl)ccc23)ccc1O [Amodiaquine] | 4.04 µM | 11.1 µM | 0.271 | 1.23 µM
CCOC(=O)c1ccc(OC(=O)CCCCCNC(=N)N)cc1.CS(=O)(=O)O [Gabexate] | > 100 µM | > 100 µM | 0.22 | > 100 µM
CCC(=O)c1ccc(F)c([C@@H]2C[C@@H]2NC(=O)Nc2ccc(C#N)cn2)c1O [MIV-150] | > 100 µM | > 100 µM | 0.306 | > 100 µM
O.O=c1c(O)c(-c2ccc(O)c(O)c2)oc2cc(O)cc(O)c12 [Quercetin] | > 100 µM | > 100 µM | 0.461 | > 100 µM
CC(C)(Sc1cc(C(C)(C)C)c(O)c(C(C)(C)C)c1)Sc1cc(C(C)(C)C)c(O)c(C(C)(C)C)c1 [Probucol] | > 100 µM | > 100 µM | 0.134 | 0.005 µM
CCOC(=O)[C@H]1O[C@@H]1C(=O)N[C@@H](CC(C)C)C(=O)NCCC(C)C [Aloxistatin] | 10.6 µM | > 100 µM | 0.151 | 33.3 µM
COc1cc(-c2oc3cc(O)cc(O)c3c(=O)c2O[C@@H]2O[C@H](CO[C@@H]3O[C@@H](C)[C@H](O)[C@@H](O)[C@H]3O)[C@@H](O)[C@H](O)[C@H]2O)ccc1O [Narcissoside] | > 100 µM | > 100 µM | 0.248 | > 100 µM
O=c1ccc2cc3ccoc3cc2o1 [Psoralen] | 29.2 µM | 33.3 µM | 0.105 | 100 µM
C=C[C@H]1C[N@@]2CC[C@H]1C[C@@H]2[C@@H](O)c1ccnc2ccc(OC)cc12 [Quinidine] | > 100 µM | > 100 µM | 0.197 | > 100 µM
O=C(Nc1c(Cl)cncc1Cl)c1ccc(OC(F)F)c(OCC2CC2)c1 [Roflumilast] | > 100 µM | 0.14 µM | 0.296 | 0.015 µM
N#C/C(=C\c1ccc(O)c(O)c1)C(=O)NCCCc1ccccc1 [Tyrphostin AG 555] | 1.13 µM | > 100 µM | 0.494 | > 100 µM
Cc1cc(C)nc(NS(=O)(=O)c2ccc(NC(=S)NC(=O)COc3ccc(Br)cc3Cl)cc2)n1 [ZCL 278] | > 100 µM | > 100 µM | 0.221 | 100 µM
